Experimental data published in US20240239785A1, “SUBSTITUTED 2-(2,6-DIOXOPIPERIDIN-3-YL)-5-(1-PIPERIDIN-4-YL)ISOINDOLINE-1,3-DIONE DERIVATIVES AND USES THEREOF” (Neomorph, Inc., priority 2021, published 2024).
Where a name gives a salt, the structure may show the parent alone. Read-outs that look alike come from different tables or passages of the source.

What was measured:
IKZF2 = molecular target: T1, IKZF2 (Homo sapiens, UniProt Q96SW2+Q9UKS7); assay: MOLT4 IKZF2 HiBit assay; type: cell-based; conditions: MOLT4 IKZF2 HiBit cells; for DC50: 6 hours incubation, 10-point dose response from 30 μM; for Dmax at 30 µM: MOLT-4, 6 hr (Dmax), read-out: % reduction of IKZF2 @ 30 μM (6 hr)
T1 construct: endogenous in cells; host or cells: MOLT4 (CRISPR/Cas9 HiBit knock-in at the IKZF2 locus)
T1 sequence (Q9UKS7 whole entry): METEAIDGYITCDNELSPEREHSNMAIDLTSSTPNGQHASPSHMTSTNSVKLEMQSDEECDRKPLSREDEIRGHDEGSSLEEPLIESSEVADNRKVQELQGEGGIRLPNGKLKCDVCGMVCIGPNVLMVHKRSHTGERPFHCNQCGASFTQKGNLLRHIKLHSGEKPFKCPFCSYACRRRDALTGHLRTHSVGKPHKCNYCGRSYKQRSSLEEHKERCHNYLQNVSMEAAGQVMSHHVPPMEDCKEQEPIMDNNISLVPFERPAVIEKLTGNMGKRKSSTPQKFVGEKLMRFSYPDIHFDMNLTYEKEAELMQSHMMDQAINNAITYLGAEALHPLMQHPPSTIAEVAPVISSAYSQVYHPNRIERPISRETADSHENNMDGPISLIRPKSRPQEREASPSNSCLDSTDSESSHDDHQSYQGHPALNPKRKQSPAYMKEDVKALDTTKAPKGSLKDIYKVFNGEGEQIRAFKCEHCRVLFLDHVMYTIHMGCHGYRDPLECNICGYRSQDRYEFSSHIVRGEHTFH
T1 sequence (Q96SW2 whole entry): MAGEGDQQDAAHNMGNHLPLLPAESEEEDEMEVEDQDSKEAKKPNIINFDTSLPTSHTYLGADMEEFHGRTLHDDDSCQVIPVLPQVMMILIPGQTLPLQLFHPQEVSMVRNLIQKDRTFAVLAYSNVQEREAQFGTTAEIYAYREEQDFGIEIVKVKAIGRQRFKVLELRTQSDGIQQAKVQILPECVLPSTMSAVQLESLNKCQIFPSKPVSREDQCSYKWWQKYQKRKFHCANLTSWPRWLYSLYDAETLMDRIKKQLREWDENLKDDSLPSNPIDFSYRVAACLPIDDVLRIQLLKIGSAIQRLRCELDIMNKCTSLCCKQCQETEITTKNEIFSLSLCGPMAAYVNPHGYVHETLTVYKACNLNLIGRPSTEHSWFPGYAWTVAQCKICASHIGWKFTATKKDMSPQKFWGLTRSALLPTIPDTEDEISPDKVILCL
T1 sequence (Q16531 whole entry partner): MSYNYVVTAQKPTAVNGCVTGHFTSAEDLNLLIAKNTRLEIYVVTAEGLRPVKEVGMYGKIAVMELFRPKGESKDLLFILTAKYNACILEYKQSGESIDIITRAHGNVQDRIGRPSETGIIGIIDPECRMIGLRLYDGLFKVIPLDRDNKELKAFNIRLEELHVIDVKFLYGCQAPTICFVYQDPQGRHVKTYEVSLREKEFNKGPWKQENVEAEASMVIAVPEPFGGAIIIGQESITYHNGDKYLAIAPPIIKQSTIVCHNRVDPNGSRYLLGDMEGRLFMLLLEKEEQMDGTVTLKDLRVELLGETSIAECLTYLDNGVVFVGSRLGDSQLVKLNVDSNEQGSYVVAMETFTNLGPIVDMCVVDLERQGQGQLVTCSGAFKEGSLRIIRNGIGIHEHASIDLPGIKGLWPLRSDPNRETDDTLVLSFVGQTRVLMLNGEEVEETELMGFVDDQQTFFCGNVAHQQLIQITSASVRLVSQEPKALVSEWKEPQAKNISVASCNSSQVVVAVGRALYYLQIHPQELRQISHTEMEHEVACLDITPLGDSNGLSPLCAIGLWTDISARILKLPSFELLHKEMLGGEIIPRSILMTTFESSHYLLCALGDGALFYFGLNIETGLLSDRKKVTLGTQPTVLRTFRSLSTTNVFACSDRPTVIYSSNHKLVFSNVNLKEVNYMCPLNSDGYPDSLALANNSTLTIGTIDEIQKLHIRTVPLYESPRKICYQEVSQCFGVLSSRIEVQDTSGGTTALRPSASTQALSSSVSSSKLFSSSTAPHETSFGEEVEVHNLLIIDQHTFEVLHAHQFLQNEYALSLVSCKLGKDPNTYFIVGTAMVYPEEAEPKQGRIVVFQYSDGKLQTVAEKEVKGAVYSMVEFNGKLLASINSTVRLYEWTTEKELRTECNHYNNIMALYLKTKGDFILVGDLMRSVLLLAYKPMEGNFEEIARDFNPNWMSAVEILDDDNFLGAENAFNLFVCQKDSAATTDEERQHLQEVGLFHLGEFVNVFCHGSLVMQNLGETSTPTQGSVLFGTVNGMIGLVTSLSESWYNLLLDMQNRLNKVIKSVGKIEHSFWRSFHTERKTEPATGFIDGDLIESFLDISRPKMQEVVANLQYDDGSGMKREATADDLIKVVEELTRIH
Procedure: MOLT4 IKZF2 HiBit Assay Protocol:
This protocol used MOLT4 cells that were engineered using CRISPR/Cas9-mediated genomic insertion of HiBit, tagged to the N terminus of the IKZF2 coding sequence. Day 1. A 10-point dose response was created starting from 30 μM down to InM using a Tecan D300e. Next was added 8,000 cells/well of the MOLT4 IKZF2 HiBit cells to the compound plate. The compounds plate was incubated for 6 hours. Day 2. Nano-Glo HiBit Lytic Buffer/Nano-Glo HiBit Lytic substrate/LgBit Protein mix was added to each well and the compound plate was incubated for 15 minutes. Finally, luminescence signal was read using a BMG Labtech PHERAstar FSX. Data was normalized to DMSO and graphed using GraphPad Prism to determine the concentration points at which 50% of HiBiT-Helios degradation was achieved by each compound. The extent of degradation (range of luminescence) from the highest to lowest concentration points was calculated to determine Dmax.

hERG = hERG (Homo sapiens, UniProt Q12809); assay: hERG IC50
Chain of hERG (Q12809 whole entry): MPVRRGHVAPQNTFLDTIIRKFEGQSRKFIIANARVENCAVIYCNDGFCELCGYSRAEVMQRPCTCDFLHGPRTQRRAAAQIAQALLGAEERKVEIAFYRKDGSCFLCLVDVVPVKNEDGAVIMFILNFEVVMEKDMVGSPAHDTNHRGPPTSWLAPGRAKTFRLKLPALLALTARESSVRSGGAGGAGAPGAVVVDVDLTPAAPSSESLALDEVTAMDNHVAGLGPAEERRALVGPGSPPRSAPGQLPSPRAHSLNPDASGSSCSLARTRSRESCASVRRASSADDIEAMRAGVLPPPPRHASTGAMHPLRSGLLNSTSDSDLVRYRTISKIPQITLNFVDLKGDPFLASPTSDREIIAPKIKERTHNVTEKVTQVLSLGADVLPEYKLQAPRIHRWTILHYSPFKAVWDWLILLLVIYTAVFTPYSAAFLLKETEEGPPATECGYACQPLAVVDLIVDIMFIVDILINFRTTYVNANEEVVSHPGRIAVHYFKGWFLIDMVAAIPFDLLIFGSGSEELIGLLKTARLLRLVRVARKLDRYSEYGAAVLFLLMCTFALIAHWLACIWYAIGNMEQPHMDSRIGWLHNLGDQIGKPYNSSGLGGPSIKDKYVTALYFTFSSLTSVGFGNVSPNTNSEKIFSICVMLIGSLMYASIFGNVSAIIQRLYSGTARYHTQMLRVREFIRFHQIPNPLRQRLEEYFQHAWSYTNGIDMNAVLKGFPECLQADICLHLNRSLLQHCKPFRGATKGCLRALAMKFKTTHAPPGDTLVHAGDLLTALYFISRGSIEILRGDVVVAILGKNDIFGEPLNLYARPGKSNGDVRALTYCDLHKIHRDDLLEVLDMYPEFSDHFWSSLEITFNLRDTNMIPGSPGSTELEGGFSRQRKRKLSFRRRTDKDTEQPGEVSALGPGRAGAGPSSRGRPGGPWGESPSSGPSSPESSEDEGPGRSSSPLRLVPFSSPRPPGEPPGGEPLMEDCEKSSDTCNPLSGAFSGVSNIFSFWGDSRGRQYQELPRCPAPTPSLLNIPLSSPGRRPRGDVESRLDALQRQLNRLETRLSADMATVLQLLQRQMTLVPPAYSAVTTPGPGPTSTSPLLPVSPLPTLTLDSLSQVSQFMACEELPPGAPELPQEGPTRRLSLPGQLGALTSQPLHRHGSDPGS

Row | SMILES | DC50 (IKZF2) [nM] | Dmax at 30 µM (IKZF2) [%] | IC50 (hERG; human) [nM] | IC50 (hERG) [nM]
1 | O=C1CCC(N2C(=O)c3ccc(C4(O)CCN(Cc5ccc(F)cc5)CC4)c(F)c3C2=O)C(=O)N1 (stereo not shown) [Compound 132, 2-(2,6-dioxopiperidin-3-yl)-4-fluoro-5-(1-(4-fluorobenzyl)-4-hydroxypiperidin-4-yl)isoindoline-1,3-dione] | 7 | 79 | 30000 | –
2 | O=C1CCC(N2C(=O)c3ccc(C4(O)CCN(Cc5ccc6scnc6c5)CC4)cc3C2=O)C(=O)N1 (stereo not shown) [Compound 111, 5-{1-[(1,3-benzothiazol-5-yl)methyl]-4-hydroxypiperidin-4-yl}-2-(2,6-dioxopiperidin-3-yl)-2,3-dihydro-1H-isoindole-1,3-dione, HCl salt] | 5 | 83 | – | > 30000
3 | O=C1CCC(N2C(=O)c3ccc(C4(O)CCN(Cc5ccc(F)c(F)c5)CC4)cc3C2=O)C(=O)N1 (stereo not shown) [Compound 60, 5-{1-[(3,4-difluorophenyl)methyl]-4-hydroxypiperidin-4-yl}-2-(2,6-dioxopiperidin-3-yl)-2,3-dihydro-1H-isoindole-1,3-dione, HCl salt] | 6 | 80 | – | 23000
4 | CC1CC(O)(c2ccc3c(c2)C(=O)N(C2CCC(=O)NC2=O)C3=O)CCN1Cc1ccccc1 (stereo not shown) [Compound 15, 5-(1-benzyl-4-hydroxy-2-methylpiperidin-4-yl)-2-(2,6-dioxopiperidin-3-yl)-2,3-dihydro-1H-isoindole-1,3-dione] | 12 | 66 | – | > 30000
5 | O=C1CCC(N2C(=O)c3ccc(C4(O)CCN(C5CCc6ncccc65)CC4)cc3C2=O)C(=O)N1 (stereo not shown) [Compound 7, 5-(1-{5H,6H,7H-cyclopenta[b]pyridin-5-yl}-4-hydroxypiperidin-4-yl)-2-(2,6-dioxopiperidin-3-yl)-2,3-dihydro-1H-isoindole-1,3-dione, HCl salt] | 9 | 90 | – | > 30000
6 | Cn1ncc2ccc(CN3CCC(O)(c4ccc5c(c4)C(=O)N(C4CCC(=O)NC4=O)C5=O)CC3)cc21 (stereo not shown) [Compound 140, 2-(2,6-dioxopiperidin-3-yl)-5-{4-hydroxy-1-[(1-methyl-1H-indazol-6-yl)methyl]piperidin-4-yl}-2,3-dihydro-1H-isoindole-1,3-dione, formic acid salt] | 3 | 87 | – | –
7 | O=C1CCC(N2C(=O)c3ccc(C4(O)CCN(C(CF)c5ccccc5)CC4)cc3C2=O)C(=O)N1 (stereo not shown) [Compound 34, 2-(2,6-dioxopiperidin-3-yl)-5-[1-(2-fluoro-1-phenylethyl)-4-hydroxypiperidin-4-yl]-2,3-dihydro-1H-isoindole-1,3-dione, formic acid salt] | 31 | 76 | – | –
